In data set [1] the target is T1, Soluble recombinant rat CD73 (Rattus norvegicus, UniProt P21588).
T1 sequence (P21588 29-551 limits assumed): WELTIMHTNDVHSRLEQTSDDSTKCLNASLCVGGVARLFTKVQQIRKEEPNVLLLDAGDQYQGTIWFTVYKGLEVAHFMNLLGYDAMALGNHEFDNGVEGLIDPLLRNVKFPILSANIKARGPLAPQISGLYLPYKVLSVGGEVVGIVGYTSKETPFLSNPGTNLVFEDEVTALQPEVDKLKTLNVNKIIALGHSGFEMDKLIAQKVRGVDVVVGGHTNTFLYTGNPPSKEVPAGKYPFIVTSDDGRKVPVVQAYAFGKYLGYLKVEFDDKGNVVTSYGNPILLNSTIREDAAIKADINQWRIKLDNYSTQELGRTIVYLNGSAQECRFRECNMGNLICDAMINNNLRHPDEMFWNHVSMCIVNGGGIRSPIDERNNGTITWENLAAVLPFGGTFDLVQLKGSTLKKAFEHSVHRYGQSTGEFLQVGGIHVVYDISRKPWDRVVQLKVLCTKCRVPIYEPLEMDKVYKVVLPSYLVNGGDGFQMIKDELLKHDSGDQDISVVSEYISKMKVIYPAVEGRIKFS
Briefly: CD73 enzyme inhibition assay, soluble rat CD73. Particulars: soluble recombinant rat CD73, Km 59 µM, substrate AMP (5 µM). Format: biochemical. The method, then:
Both compounds were evaluated for metabolic stability in mouse liver microsomes (MLM) and plasma protein binding (PPB) (Table 1).
The CD73 enzyme inhibition assay of recombinant soluble CD73, membrane-bound human CD73, soluble rat CD73 and mouse CD73 was performed as previously described.^[16,35^]

For data set [2], the target named is T2, CD73/AMPase activity in human breast tumor tissues (Homo sapiens, UniProt P21589).
T2 construct: cryosections of breast tumor samples as well as sentinel lymph node samples were investigated; from tissue; host or cells: primary breast tumors and sentinel lymph nodes of two patients, 6 µm cryosections
T2 sequence (P21589 27-574): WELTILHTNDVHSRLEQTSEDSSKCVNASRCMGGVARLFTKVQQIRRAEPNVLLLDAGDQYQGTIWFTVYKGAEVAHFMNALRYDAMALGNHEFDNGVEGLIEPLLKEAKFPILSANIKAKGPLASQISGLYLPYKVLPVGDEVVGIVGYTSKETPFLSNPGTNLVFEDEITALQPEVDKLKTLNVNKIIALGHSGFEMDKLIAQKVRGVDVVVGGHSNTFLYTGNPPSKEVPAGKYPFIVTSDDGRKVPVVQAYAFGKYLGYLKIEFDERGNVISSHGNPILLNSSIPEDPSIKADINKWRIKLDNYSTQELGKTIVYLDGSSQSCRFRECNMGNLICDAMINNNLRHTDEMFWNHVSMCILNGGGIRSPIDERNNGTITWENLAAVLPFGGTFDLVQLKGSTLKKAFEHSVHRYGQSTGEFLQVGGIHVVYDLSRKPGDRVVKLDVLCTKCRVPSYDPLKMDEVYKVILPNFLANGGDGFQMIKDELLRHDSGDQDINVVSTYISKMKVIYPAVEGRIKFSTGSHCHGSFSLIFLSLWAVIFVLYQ
The experiment in a line: In situ enzyme histochemistry of AMPase activity in breast tumor cryosections. Particulars: 10–50 nM inhibitor, 400 µM AMP, tissue cryosections. Type of data set: biochemical. The method, then: Subsequent analysis of CD73‐mediated AMPase activities was performed by incubating tissue cryosections with AMP and CD73 inhibitors at different concentrations. Figure 2 depicts representative images of AMP‐specific staining in breast tumors from patient X (panel A) and patient Y (panel B), determined in the absence (control) and in the presence of 10 nM of the potent CD73 inhibitor 1.
FIGURE 3 Effects of CD73 inhibitors on AMPase activity in human breast tumor tissues. The effects of CD73 inhibitors on AMPase activity was determined in situ by incubating primary breast tumor samples from patient X (A) and patient Y (B) with 400 µM AMP and 1.5 mM Pb(NO3)2 in the absence (control) and the presence of the indicated concentrations of CD73 inhibitor. (C). Mean pixel intensities of brown staining due to the hydrolysis of AMP leading to Pb3(PO4)2 precipitation were quantified in the selected regions and expressed as arbitrary units (AU) (mean ± SEM; n = 2). Scale bars: 2 mm (A, B), and 500 µm (A, right insets).
For the localization of AMPase activities in human tumors, the lead nitrate-based enzyme histochemistry was employed. […] AMPase activity was determined by measuring AMP-specific brown staining intensities from the images using QuPath v.0.3.0 software. […] The average DAB intensity levels were measured as described earlier.^[39^] […]

Data set [3] concerns the target Human serum albumin (HSA) (Homo sapiens, UniProt P02768). Briefly: Plasma protein binding (human serum albumin binding). Format: in vitro ADME. The following applies: human serum albumin, read-out: Plasma protein binding (PPB) (converted). The method, then: Human serum albumin (HSA) binding.
Plasma protein binding was determined following previously published procedure.^[38^]

From paper PMC13077603, “Fluorine‐18‐Labeled Nucleotide Analogs Targeting Ecto‐5'‐Nucleotidase (CD73) for Positron Emission Tomography Imaging of Solid Tumors” (Angewandte Chemie (International Ed. in English), 2026) come the findings set out here.

pKi: −log10 of the molar value.

Human serum albumin (HSA), sequence (P02768 25-609): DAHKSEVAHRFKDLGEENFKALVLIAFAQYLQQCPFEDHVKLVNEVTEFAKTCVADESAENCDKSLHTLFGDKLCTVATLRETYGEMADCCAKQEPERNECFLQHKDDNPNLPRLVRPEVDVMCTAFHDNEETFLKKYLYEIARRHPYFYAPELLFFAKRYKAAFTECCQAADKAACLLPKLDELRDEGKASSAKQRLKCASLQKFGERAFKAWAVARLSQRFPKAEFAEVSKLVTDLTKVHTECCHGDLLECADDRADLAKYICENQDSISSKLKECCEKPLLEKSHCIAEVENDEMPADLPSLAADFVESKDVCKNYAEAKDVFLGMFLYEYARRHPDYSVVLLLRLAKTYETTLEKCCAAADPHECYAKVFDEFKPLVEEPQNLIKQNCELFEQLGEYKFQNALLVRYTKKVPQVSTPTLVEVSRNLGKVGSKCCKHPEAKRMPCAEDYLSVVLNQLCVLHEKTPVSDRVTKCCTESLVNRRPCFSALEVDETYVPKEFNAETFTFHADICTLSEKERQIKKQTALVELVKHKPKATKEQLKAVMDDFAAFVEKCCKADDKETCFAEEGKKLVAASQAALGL

Regarding `CCCN(Cc1ccc(-c2cn(CCF)nn2)cc1)c1nc(Cl)nc2c1ncn2[C@@H]1O[C@H](COP(=O)(O)CP(=O)(O)O)[C@@H](O)[C@H]1O` [compound 1], in data set [1], the pKi was 8.22. Besides, the “Reduction of CD73/AMPase activity in the breast TME” value in data set [2] is 60%–70. In addition, the fraction unbound in data set [3] is less than 0.01.
